Measurements as given in paper PMC7601674, “CoQ10 Deficient Endothelial Cell Culture Model for the Investigation of CoQ10 Blood–Brain Barrier Transport” (Journal of Clinical Medicine, 2020).

How the values were obtained:
[1] = test system: primary porcine brain endothelial cells (PBEC) monolayer; test: CoQ10 transport assay across PBEC monolayer on Transwell filters; settings: for Transport to the Basal side, percentage of Apical compartment: A to B, no serum pre-incubation
Method: Primary porcine brain endothelial cells (PBEC) were isolated and cultured as previously published. Briefly, cells were seeded at 10 × 10^4 cells/cm^2 on collagen and fibronectin-coated polycarbonate Transwell filters (Corning 0.4 µm pore size) in 12-well plates, and grown in low glucose DMEM (Sigma D5546) supplemented with bovine plasma-derived serum (10% v/v; BPDS, First Link UK), glutamine (2 mM), heparin (125 µg/mL), penicillin (100 U/mL) and streptomycin (100 µg/mL), at 37 °C in a 5% CO2 incubator. PBECs were grown in non-contact co-culture above primary rat astrocytes until confluent, then supplemented with hydrocortisone (550 nM), 8-4-chlorophenylthio-cAMP (250 µM) and RO-20-1724 (17.5 µM) in serum-free medium for a further 3 days. Before assays of CoQ10 transport, PBECs were separated from astrocytes by moving transwell filters to fresh culture plates.
(§1) Unless stated, CoQ10 was pre-treated by incubation in serum at a concentration of 20 µM for 45 min at 37 °C, and added to assay buffer on either the Apical (blood facing) or Basal (brain facing) side of the cells on Transwell filters. The final concentration of CoQ10 used in the assays was 10 µM in serum (50% v/v). Cells were then incubated for 60 min on an orbital shaker (100 rpm) at 37 °C. Samples of the Apical (A) and Basal (B) media were then taken for analysis to calculate A to B (blood-to-brain) or B to A (brain-to-blood) Papp in cm/s, as previously described by Patabendige et al.. CoQ10 concentrations were determined using the LC-MS/MS method described above (Section 2.2).
(§2) Inhibitors of transport were added to both Apical and Basal sides of the cells for 2 h prior to assay. Antioxidants were pre-incubated with CoQ10 in serum for 45 min prior to assay, and were present in the assay buffer. Compounds used were; SR-B1 inhibitor, blocker of lipid transport-1 (BLT-1; 10 µmol/L)

[2] = test system: bEnd.3 cells (mouse BBB cell line) monolayer; test: CoQ10 transport assay across bEnd.3 monolayer on Transwell filters (control or pABA treated)
Method: as §1, §2
As previously described, para-aminobenzoic acid (pABA) was used as a pharmacological reagent to induce CoQ10 deficiency. The mechanism of action is via competitive inhibition of polyprenyl-4-hydroxybenzoate transferase (Coq2p), a key enzyme in the later stages of the CoQ10 biosynthetic pathway. Following the method of Duberley et al., 1 mmol/L pABA was added to culture medium for 5 days prior to assay.

[3] = CoQ10 partition in serum lipoprotein fractions; format: in vitro ADME, bovine; settings: for CoQ10 content in HDL fraction / CoQ10 content in LDL fraction: n = 3; for CoQ10 content in vLDL fraction: calculated by subtraction
Method: Bovine plasma-derived serum (BPDS) was either untreated or supplemented with 10 µM CoQ10 for 45 min at 37 °C. Serum lipoproteins were then fractionated according to the method of Ononogbu et al. and the CoQ10 content measured in each fraction by LC-MS/MS. This lipoprotein fraction method is comprised of two parallel precipitation-centrifugation extractions, yielding a separation of the major classes of lipoprotein as supernatants containing “LDL + HDL” and “HDL”. The concentration of CoQ10 in the “VLDL” fraction was calculated by subtraction.

[4] = parameters: method as in PMID 17482886, PMID 22272129; settings: after oral-supplementation in vivo; cited from earlier work
[5] = test system: CoQ10 deficient human neuroblastoma cells; parameters: method as in PMID 24534273; settings: treatment with 10 μmol/L CoQ10; cited from earlier work
[6] = parameters: method as in PMID 9671775; settings: diet supplemented with 200 mg/kg CoQ10 for 2 months; cited from earlier work
[7] = parameters: method as in PMID 16647250; settings: high-dose (1000–5000 mg/kg) CoQ10; cited from earlier work
[8] = test system: ataxic symptoms; parameters: method as in PMID 22490322; settings: cerebellar ataxic phenotype, following CoQ10 supplementation; cited from earlier work
[9] = serum supplemented with 10 μmol/L CoQ10
[10] = serum supplemented with 10 μmol/L CoQ10, 45 min

COC1=C(OC)C(=O)C(C/C=C(\C)CC/C=C(\C)CC/C=C(\C)CC/C=C(\C)CC/C=C(\C)CC/C=C(\C)CC/C=C(\C)CC/C=C(\C)CC/C=C(\C)CCC=C(C)C)=C(C)C1=O [CoQ10, Coenzyme Q10]
Transport to the Basal side, percentage of Apical compartment ([1]; 30 min): undetectable
Transport to the Basal side, percentage of Apical compartment ([1]; after 2 h, n = 4): 0.51 ± 0.15%
Increase of transport across PBEC monolayer after pre-incubation in serum ([1]; CoQ10 pre-incubated 45 min in serum (BPDS) vs no serum): 4 fold
Effect of serum pre-incubation on Papp (A to B and B to A) ([1]; PBEC, 60 min): enhanced transport in both directions
Transport across monolayer after pABA treatment vs control ([1]; PBEC, pABA 1 mM 5 days): increased transport
Effect of serum pre-incubation on Papp (A to B and B to A) ([2]; bEnd.3, 60 min): enhanced transport in both directions
NET CoQ10 Apical to Basal Papp (A to B Papp - B to A Papp) ([2]; bEnd.3, Control): -0.02 ×10⁻⁶ cm/s
NET CoQ10 Apical to Basal Papp (A to B Papp - B to A Papp) ([2]; bEnd.3, LDLR inhib (RAP 0.5 µM)): 0.1 ×10⁻⁶ cm/s
NET CoQ10 Apical to Basal Papp (A to B Papp - B to A Papp) ([2]; bEnd.3, P-gp inhib (verapamil 0.1 mM)): -0.04 ×10⁻⁶ cm/s
NET CoQ10 Apical to Basal Papp (A to B Papp - B to A Papp) ([2]; bEnd.3, RAGE inhib (FPS-ZM1 1 µM)): -0.08 ×10⁻⁶ cm/s
NET CoQ10 Apical to Basal Papp (A to B Papp - B to A Papp) ([2]; bEnd.3, SR-B1 inhib (BLT-1 10 µM)): -0.13 ×10⁻⁶ cm/s
Transport across monolayer after pABA treatment vs control ([2]; bEnd.3, pABA 1 mM 5 days): increased transport
Supplemented CoQ10 recovered in the vLDL/LDL fractions ([3]; serum supplemented with 10 µM CoQ10): More than 92%
% of CoQ10 in HDL fraction [3, 9]: 7.2%
% of CoQ10 in LDL fraction [3, 9]: 63.8%
% of CoQ10 in vLDL fraction [3, 9]: 29%
CoQ10 content in HDL fraction [3, 10]: 762 ± 8.1 nmol/L
CoQ10 content in LDL fraction [3, 10]: 6718 ± 103.5 nmol/L
CoQ10 content in vLDL fraction [3, 9]: 3060 ± 138.8 nmol/L
Serum endogenous CoQ10 content ([3]; untreated cell culture serum): 147.5 ± 0.5 nM
% of CoQ10 in HDL fraction ([3]; untreated serum): 21.7%
% of CoQ10 in LDL fraction ([3]; untreated serum): 77.7%
% of CoQ10 in vLDL fraction ([3]; untreated serum): 0.6%
CoQ10 content in HDL fraction ([3]; untreated serum): 32.7 ± 1.8 nmol/L
CoQ10 content in LDL fraction ([3]; untreated serum): 117.0 ± 1.2 nmol/L
CoQ10 content in vLDL fraction ([3]; untreated serum): 0.9 ± 0.01 nmol/L
Highest achievable CoQ10 plasma concentration [4]: 10.7 µmol/L
MRC function [5]: restores MRC function
Increase in cerebral cortex CoQ10 and CoQ9 [6]: 30%
Brain levels of CoQ10 and CoQ9 [7]: significantly increased in brain levels of CoQ10 and CoQ9
Patients with improvement/stabilisation in ataxic symptoms [8]: 49%
